In article PMC8179156, “Retrograde sulfur flow from glucosinolates to cysteine in Arabidopsis thaliana” (Proceedings of the National Academy of Sciences of the …, 2021):

How the values were obtained:
Assay type in all cases: biochemical
[1] = molecular target: T1, AtTGG1-His6 (Arabidopsis thaliana, UniProt P37702); experiment: D-glucose release, extract of expressing N. benthamiana leaves; conditions: crude extract; His6-GFP control at background
T1 construct: gene TGG1; His6 tag (printed AtTGG1-His6); transient expression in Nicotiana benthamiana leaves; crude protein extract
T1 sequence (P37702 20-541): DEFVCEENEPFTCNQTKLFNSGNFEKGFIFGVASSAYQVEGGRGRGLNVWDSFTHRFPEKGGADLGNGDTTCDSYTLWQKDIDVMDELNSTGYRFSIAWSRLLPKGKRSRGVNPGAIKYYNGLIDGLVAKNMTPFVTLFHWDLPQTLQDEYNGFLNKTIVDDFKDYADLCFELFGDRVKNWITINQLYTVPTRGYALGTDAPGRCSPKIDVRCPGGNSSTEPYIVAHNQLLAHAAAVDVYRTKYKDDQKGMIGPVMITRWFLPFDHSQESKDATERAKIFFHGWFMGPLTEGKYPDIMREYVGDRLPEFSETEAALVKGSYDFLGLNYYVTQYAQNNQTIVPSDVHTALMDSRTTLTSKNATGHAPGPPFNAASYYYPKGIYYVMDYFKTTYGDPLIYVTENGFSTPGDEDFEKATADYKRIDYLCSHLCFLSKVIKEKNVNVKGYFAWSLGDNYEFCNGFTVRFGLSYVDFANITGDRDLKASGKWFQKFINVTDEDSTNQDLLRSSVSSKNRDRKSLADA

[2] = molecular target: T2, AtBGLU28-His6 (Arabidopsis thaliana, UniProt Q4V3B3); experiment: as above; conditions: crude extract; His6-GFP control at background
T2 construct: gene BGLU28; C-terminal His6 tag; transient expression in Nicotiana benthamiana leaves; crude protein extract
T2 sequence (Q4V3B3 22-582): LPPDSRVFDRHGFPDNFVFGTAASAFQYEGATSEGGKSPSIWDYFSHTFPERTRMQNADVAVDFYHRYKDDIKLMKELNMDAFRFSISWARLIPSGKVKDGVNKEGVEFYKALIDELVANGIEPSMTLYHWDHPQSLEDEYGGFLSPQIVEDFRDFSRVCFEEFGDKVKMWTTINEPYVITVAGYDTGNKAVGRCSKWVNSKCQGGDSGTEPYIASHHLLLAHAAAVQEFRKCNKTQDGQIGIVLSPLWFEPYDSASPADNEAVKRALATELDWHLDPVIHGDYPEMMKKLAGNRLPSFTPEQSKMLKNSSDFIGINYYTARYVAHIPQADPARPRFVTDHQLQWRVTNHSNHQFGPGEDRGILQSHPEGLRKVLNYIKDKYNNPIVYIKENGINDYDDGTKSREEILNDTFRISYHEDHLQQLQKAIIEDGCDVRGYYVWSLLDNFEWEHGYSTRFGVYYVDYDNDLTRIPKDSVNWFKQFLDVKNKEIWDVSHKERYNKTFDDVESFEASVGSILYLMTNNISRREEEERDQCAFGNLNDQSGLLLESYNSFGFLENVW

[3] = molecular target: T3, AtOXP1 (Arabidopsis thaliana, UniProt Q9FIZ7); experiment: Glu production in crude seedling extract, WT versus oxp1-1; conditions: native crude extract; stereochemistry of 5OP not given
T3 construct: gene OXP1; native enzyme in crude protein extract of 14-d-old seedlings; assigned by comparison with oxp1-1 mutant
T3 sequence (Q9FIZ7 1-1266): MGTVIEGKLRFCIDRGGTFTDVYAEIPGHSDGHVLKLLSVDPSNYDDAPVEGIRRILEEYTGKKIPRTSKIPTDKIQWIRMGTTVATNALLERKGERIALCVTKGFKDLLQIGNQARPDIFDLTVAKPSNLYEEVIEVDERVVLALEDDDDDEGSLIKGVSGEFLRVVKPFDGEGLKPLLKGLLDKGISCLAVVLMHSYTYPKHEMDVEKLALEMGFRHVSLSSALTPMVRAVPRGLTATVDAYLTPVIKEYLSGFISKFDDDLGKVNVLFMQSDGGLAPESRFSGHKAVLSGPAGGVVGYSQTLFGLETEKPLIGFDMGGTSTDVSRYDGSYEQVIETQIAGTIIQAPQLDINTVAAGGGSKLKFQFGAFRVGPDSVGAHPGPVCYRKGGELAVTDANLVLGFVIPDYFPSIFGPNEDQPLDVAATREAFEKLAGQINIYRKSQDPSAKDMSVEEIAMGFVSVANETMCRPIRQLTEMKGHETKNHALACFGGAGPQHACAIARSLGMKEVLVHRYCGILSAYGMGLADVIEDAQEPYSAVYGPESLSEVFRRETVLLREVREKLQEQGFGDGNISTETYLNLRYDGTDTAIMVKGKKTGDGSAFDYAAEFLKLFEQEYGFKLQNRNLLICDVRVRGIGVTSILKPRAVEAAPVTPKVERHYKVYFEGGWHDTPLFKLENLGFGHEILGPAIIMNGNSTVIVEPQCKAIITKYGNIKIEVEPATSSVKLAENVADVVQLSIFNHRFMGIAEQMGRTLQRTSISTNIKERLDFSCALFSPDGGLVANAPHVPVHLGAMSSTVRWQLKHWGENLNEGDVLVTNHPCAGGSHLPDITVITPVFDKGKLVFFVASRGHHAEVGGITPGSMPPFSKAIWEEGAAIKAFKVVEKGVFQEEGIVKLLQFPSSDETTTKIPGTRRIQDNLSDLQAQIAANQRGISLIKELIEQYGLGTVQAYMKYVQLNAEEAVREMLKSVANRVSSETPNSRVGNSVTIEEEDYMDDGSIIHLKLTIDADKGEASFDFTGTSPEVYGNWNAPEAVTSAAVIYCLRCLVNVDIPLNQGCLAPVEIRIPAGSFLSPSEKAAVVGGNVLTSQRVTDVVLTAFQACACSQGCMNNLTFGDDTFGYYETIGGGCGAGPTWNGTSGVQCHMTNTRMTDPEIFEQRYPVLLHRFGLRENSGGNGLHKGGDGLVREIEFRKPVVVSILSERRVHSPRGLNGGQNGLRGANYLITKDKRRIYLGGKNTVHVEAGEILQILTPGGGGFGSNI

[4] = molecular target: T3, AtOXP1; experiment: Cys production in crude seedling extract, WT versus oxp1-1; conditions: native crude extract; stereochemistry of pCys not given

Compound | D-glucose release, extract of expressing N. benthamiana leaves [1] | D-glucose release, extract of expressing N. benthamiana leaves [2] | Glu production in crude seedling extract, WT versus oxp1-1 [3] | Cys production in crude seedling extract, WT versus oxp1-1 [4]
CSCCCC/C(=N/OS(=O)(=O)O)S[C@@H]1O[C@H](CO)[C@@H](O)[C@H](O)[C@H]1O [4MTB, 4-Methylthio-n-butyl glucosinolate] | the extract containing AtTGG1-His6 hydrolyzed all the tested GLs at similar rates | exhibited higher rates of hydrolysis against 4MTB, benzyl glucosinolate, and PhE | – | –
O=C1CC[C@@H](C(=O)O)N1 [5OP, 5-oxoproline] | – | – | lower rate of Cys production than the WT as observed for the Glu production from 5OP | –
O=S(=O)(O)O/N=C(/CCc1ccccc1)S[C@@H]1O[C@H](CO)[C@@H](O)[C@H](O)[C@H]1O [PhE, 2-Phenylethyl glucosinolate] | the extract containing AtTGG1-His6 hydrolyzed all the tested GLs at similar rates | exhibited higher rates of hydrolysis against 4MTB, benzyl glucosinolate, and PhE | – | –
O=C1N[C@H](C(=O)O)CS1 [pCys, 1,3-thiazolidin-2-one-4-carboxylic acid] | – | – | – | supporting that AtOXP1 can hydrolyze pCys, as reported for OPases in other organisms
